Assay results published in ChEMBL document CHEMBL4837249, “Discovery of Potent Antiallergic Agents Based on an o-Aminopyridinyl Alkynyl Scaffold” (J Med Chem, 2021).

Key:
[1] = system: RBL-2H3; assay: Antiallergic activity against anti-DNP-IgE sensitized rat RBL-2H3 cells assessed as […] of degranulation by measuring beta-hexosaminidase release using P-nitrophenyl-N-acetyl-D-glucosamide as substrate measured after 1 hr by microplate reader; type: functional, cell-based; settings: RBL-2H3, 1 h
[2] = system: RBL-2H3; assay: Antiallergic activity against anti-DNP-IgE sensitized rat RBL-2H3 cells assessed as […] of degranulation by measuring beta-hexosaminidase release using P-nitrophenyl-N-acetyl-D-glucosamide as substrate at 1 uM measured after 1 hr by microplate reader relative to control; type: functional
[3] = system: RBL-2H3; assay: Antiallergic activity against anti-DNP-IgE sensitized rat RBL-2H3 cells assessed as […] of degranulation by measuring beta-hexosaminidase release using P-nitrophenyl-N-acetyl-D-glucosamide as substrate at 0.04 uM measured after 1 hr by microplate reader relative to control; type: functional
[4] = system: RBL-2H3; assay: Antiallergic activity against anti-DNP-IgE sensitized rat RBL-2H3 cells assessed as […] of degranulation by measuring beta-hexosaminidase release using P-nitrophenyl-N-acetyl-D-glucosamide as substrate at 0.2 uM measured after 1 hr by microplate reader relative to control; type: functional
[5] = target: Macrophage colony-stimulating factor 1 receptor (Homo sapiens, UniProt P07333); assay: Inhibition of human recombinant CSF1R using ATP/Ulight-TK peptide incubated for 15 mins
Macrophage colony-stimulating factor 1 receptor, sequence (P07333 whole entry): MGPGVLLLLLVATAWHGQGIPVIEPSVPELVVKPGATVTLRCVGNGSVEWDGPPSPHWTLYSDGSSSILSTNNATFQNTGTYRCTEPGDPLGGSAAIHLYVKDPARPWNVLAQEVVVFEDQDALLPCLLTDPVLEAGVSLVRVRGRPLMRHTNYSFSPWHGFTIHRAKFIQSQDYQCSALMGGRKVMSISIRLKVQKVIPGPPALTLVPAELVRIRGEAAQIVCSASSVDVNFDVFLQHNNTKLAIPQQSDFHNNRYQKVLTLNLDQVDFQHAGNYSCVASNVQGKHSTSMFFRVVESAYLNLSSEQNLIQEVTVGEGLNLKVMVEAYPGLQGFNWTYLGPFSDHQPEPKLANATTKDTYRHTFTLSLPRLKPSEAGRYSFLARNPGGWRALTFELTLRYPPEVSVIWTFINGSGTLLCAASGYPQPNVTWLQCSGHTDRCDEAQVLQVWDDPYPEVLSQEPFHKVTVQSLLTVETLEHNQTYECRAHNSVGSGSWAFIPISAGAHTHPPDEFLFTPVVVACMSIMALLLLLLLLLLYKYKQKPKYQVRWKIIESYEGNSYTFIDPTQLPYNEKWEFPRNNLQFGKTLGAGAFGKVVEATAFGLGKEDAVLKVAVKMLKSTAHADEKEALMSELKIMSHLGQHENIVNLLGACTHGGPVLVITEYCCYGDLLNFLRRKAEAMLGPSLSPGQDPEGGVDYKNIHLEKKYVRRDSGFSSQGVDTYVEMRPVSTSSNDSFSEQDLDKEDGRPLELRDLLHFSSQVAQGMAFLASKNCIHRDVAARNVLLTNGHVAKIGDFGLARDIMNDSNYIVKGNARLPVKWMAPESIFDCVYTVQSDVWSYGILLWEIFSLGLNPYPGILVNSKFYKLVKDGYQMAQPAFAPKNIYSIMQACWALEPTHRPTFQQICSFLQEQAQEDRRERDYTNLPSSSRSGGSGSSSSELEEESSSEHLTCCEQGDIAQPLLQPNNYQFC

[6] = Therapeutic index, ratio of CC50 for rat RBL2H3 cells to IC50 for Antiallergic activity against anti-DNP-IgE sensitized rat RBL-2H3 cells; type: toxicity; settings: read-out: TI

| SMILES | IC50 [1] [nM] | inhibition at 1 µM [2] [%] | inhibition at 0.04 µM [3] [%] | inhibition at 0.2 µM [4] [%] | IC50 [5] [nM] | selectivity ratio [6] |
| --- | --- | --- | --- | --- | --- | --- |
| FC(F)(F)c1ccc(CNc2ccc(Cc3c[nH]c4ncc(Cl)cc34)cn2)cn1 [PEXIDARTINIB] | > 1000 |  |  |  |  |  |
| COc1cc(NC(=O)c2cccc(C#Cc3cc(-c4cnn(C)c4)cnc3N)c2)cc(OC)c1 |  | 41 | 1.08 | 272 |  |  |
| Cc1ccc(C(=O)Nc2ccc(Cl)c(Cl)c2)cc1C#Cc1cc(-c2cnn(C)c2)cnc1N |  | 65 | 39.8 | 40.6 |  |  |
| COc1cc(NC(=O)c2ccc(C)c(C#Cc3cccnc3N)c2)cc(OC)c1 |  | 55.9 | 4.26 | 3.01 |  |  |
| COc1ccc(NC(=O)c2ccc(C)c(C#Cc3cc(-c4cnn(C)c4)cnc3N)c2)cc1OC |  | 82.2 | 23.7 | 49.7 |  |  |
| Cc1ccc(C(=O)Nc2ccc(Cl)c(C(F)(F)F)c2)cc1C#Cc1cc(-c2cnn(C)c2)cnc1N | 13 | 170 | 76.1 | 145 | 30 | 13.9 |
| COc1cc(NC(=O)c2cccc(C#Cc3cc(-c4cnn(C)c4)cnc3N)c2OC)cc(OC)c1 |  | 22.8 | 0 | 6.7 |  |  |
| COc1ccccc1NC(=O)c1ccc(C)c(C#Cc2cc(-c3cnn(C)c3)cnc2N)c1 |  | 73.5 | 10.2 |  |  |  |
| Cc1ccc(C(=O)Nc2ccc(CN3CCN(C)CC3)c(C(F)(F)F)c2)cc1C#Cc1cnc2cccnn12 [PONATINIB] | 148 |  |  |  |  |  |
| Cc1ccc(C(=O)Nc2ccccc2Cl)cc1C#Cc1cc(-c2cnn(C)c2)cnc1N |  | 25 | -4.58 | -5.24 |  |  |
| COc1cc(NC(=O)c2ccc(Br)c(C#Cc3cc(-c4cnn(C)c4)cnc3N)c2)cc(OC)c1 |  | 79.2 | 22.6 | 36.6 |  |  |
| COc1cc(NC(=O)c2ccc(C)c(C#Cc3cc(-c4cnn(C)c4)cnc3N)c2)cc(OC)c1 | 25.8 | 108 | 20.1 | 61.7 |  | 15.4 |
| Cc1ccc(C(=O)NC2CCCCC2)cc1C#Cc1cc(-c2cnn(C)c2)cnc1N |  | 63.7 | 0.18 |  |  |  |
| Cc1ccc(C(=O)Nc2ccc(C(F)(F)F)cc2)cc1C#Cc1cc(-c2cnn(C)c2)cnc1N | 6.08 | 78.4 | 51.1 | 60.8 |  | 2.3 |
| Cc1ccc(C(=O)Nc2cccc(OC(F)(F)F)c2)cc1C#Cc1cc(-c2cnn(C)c2)cnc1N | 7.15 | 150 | 81.1 | 138 | 24 | 12.9 |
| COc1cc(NC(=O)c2ccc(C)c(C#Cc3cc(Cl)cnc3N)c2)cc(OC)c1 |  | 50.9 | -1.58 | 37 |  |  |
| COc1cc(NC(=O)c2ccc(F)c(C#Cc3cc(-c4cnn(C)c4)cnc3N)c2)cc(OC)c1 |  | 30.9 | 2.34 | 0.83 |  |  |
| COc1cc(NC(=O)c2ccc(C(C)C)c(C#Cc3cc(-c4cnn(C)c4)cnc3N)c2)cc(OC)c1 |  | -1.01 | -8.56 | -7.82 |  |  |

| SMILES | IC50 [1] [nM] | inhibition at 1 µM [2] [%] | inhibition at 0.04 µM [3] [%] | inhibition at 0.2 µM [4] [%] | IC50 [5] [nM] | selectivity ratio [6] |
| --- | --- | --- | --- | --- | --- | --- |
| COc1cccc(NC(=O)c2ccc(C)c(C#Cc3cc(-c4cnn(C)c4)cnc3N)c2)c1 | 21.9 | 125 |  | 80.5 |  |  |
| COc1cc(NC(=O)c2ccc(OC)c(C#Cc3cc(-c4cnn(C)c4)cnc3N)c2)cc(OC)c1 |  | 34 | 11 | 18 |  |  |
| COc1cc(NC(=O)c2ccc(C(F)(F)F)c(C#Cc3cc(-c4cnn(C)c4)cnc3N)c2)cc(OC)c1 |  | 15.7 | -3.24 | -2.84 |  |  |
| COc1cc(NC(=O)c2ccc(Cl)c(C#Cc3cc(-c4cnn(C)c4)cnc3N)c2)cc(OC)c1 |  | 52.5 | 0 | 9.97 |  |  |
| COc1ccc(NC(=O)c2ccc(C)c(C#Cc3cc(-c4cnn(C)c4)cnc3N)c2)cc1 | 10.6 | 101 | 41.5 | 66.9 |  |  |
| COc1cc(NC(=O)c2cccc(C#Cc3cc(-c4cnn(C)c4)cnc3N)c2C)cc(OC)c1 |  | 18.3 | 3.11 | 8.75 |  |  |
| Cc1ccc(C(=O)Nc2ccccc2)cc1C#Cc1cc(-c2cnn(C)c2)cnc1N |  | 65.3 | 28.6 | 40.9 |  |  |
| CNC(=O)c1cnc(N)c(C#Cc2cc(C(=O)Nc3cc(OC)cc(OC)c3)ccc2C)c1 |  | 66.2 | 14.7 | 26.8 |  |  |
| Cc1ccc(C(=O)Nc2ccc3c(c2)OCCO3)cc1C#Cc1cc(-c2cnn(C)c2)cnc1N | 67.3 | 132 | 66.8 | 102 |  |  |
| COc1cc(NC(=O)c2ccc(C)c(C#Cc3cc(-c4cnn(C)c4)cnc3N)c2)cc(OC)c1OC | 7.43 | 131 | 82.6 | 103 | 8 | 2.2 |
| CCNc1ncc(-c2cnn(C)c2)cc1C#Cc1cc(C(=O)Nc2cc(OC)cc(OC)c2)ccc1C |  | 95.4 | 16.8 | 45.3 |  |  |
| Cc1ccc(C(=O)Nc2cccc(C(F)(F)F)c2)cc1C#Cc1cc(-c2cnn(C)c2)cnc1N | 2.75 | 113 | 88.9 | 109 |  | 2.5 |
| Cc1ccc(C(=O)Nc2ccccn2)cc1C#Cc1cc(-c2cnn(C)c2)cnc1N |  | 60.6 | 2.86 | 21.1 |  |  |
| Cc1ccc(C(=O)Nc2ccc(C(F)(F)F)c(C(F)(F)F)c2)cc1C#Cc1cc(-c2cnn(C)c2)cnc1N | 58.8 | 144 | 40.5 |  |  |  |
| COc1cc(NC(=O)c2cccc(C#Cc3cc(-c4cnn(C)c4)cnc3N)c2F)cc(OC)c1 |  | 33 | 34 | 24.8 |  |  |
| Cc1ccc(C(=O)Nc2cccc(Cl)c2)cc1C#Cc1cc(-c2cnn(C)c2)cnc1N | 6.54 | 118 | 49 | 82.9 |  | 3.8 |
| Cc1ccc(C(=O)Nc2ccc(Cl)cc2)cc1C#Cc1cc(-c2cnn(C)c2)cnc1N | 23.9 | 89.5 | 52 | 68.6 |  | 11.3 |
| COc1cc(NC(=O)c2ccc(C)c(C#Cc3cc(C(N)=O)cnc3N)c2)cc(OC)c1 |  | 74.2 | 10.8 | 13.7 |  |  |
